Experimental data published in ChEMBL document CHEMBL1146977, “Taxoid from the needles of the Himalayan yew Taxus wallichiana with cytotoxic and immunomodulatory activities” (Bioorg Med Chem Lett, 2006).
Converted amounts (≈) assume the structure as drawn.

Tests used:
Assay type in all cases: functional, cell-based
[1] = test system: MCF7; test: Cytotoxicity against human MCF7 cells by MTT assay
[2] = test system: MCF7; test: Cytotoxicity against human MCF7 cells by clonogenic assay
[3] = test system: WRL68; test: Cytotoxicity against human WRL68 cells by MTT assay
[4] = test system: WRL68; test: Cytotoxicity against human WRL68 cells by clonogenic assay
[5] = test system: KB; test: Cytotoxicity against human KB cells by MTT assay
[6] = test system: KB; test: Cytotoxicity against human KB cells by clonogenic assay
[7] = test system: PA-1; test: Cytotoxicity against human PA1 cells by MTT assay
[8] = test system: PA-1; test: Cytotoxicity against human PA1 cells by clonogenic assay
[9] = test system: COLO 320DM; test: Cytotoxicity against human Colo320DM cells by MTT assay
[10] = test system: COLO 320DM; test: Cytotoxicity against human Colo320DM cells by clonogenic assay

Structure (SMILES)	IC50 [1] [µg/mL]	IC50 [2] [µg/mL]	IC50 [3] [µg/mL]	IC50 [4] [µg/mL]	IC50 [5] [µg/mL]	IC50 [6] [µg/mL]	IC50 [7] [µg/mL]	IC50 [8] [µg/mL]	IC50 [9] [µg/mL]	IC50 [10] [µg/mL]
C=C1[C@H]2C[C@]3(O)C[C@H](OC(C)=O)C(C)=C([C@@H](OC(C)=O)[C@H](OC(C)=O)[C@]2(C)[C@@H](OC(C)=O)C[C@@H]1O)C3(C)C	0.18 (≈ 0.335 µM)	8.42 (≈ 15.7 µM)	1.65 (≈ 3.07 µM)	12.8 (≈ 23.9 µM)	0.04 (≈ 0.0745 µM)	1.23 (≈ 2.29 µM)	0.01 (≈ 0.0186 µM)	0.85 (≈ 1.58 µM)	0.23 (≈ 0.429 µM)	1.82 (≈ 3.39 µM)
CC[C@]1(O)C[C@@H]2CN(CCc3c([nH]c4ccccc34)[C@@](C(=O)OC)(c3cc4c(cc3OC)N(C)[C@H]3[C@@](O)(C(=O)OC)[C@H](OC(C)=O)[C@]5(CC)C=CCN6CC[C@]43[C@@H]65)C2)C1 [VINBLASTINE]	0.02 (≈ 0.0247 µM)	0.22 (≈ 0.271 µM)	1.45 (≈ 1.79 µM)	2.6 (≈ 3.21 µM)	0.046 (≈ 0.0567 µM)	0.46 (≈ 0.567 µM)	0.025 (≈ 0.0308 µM)	1.15 (≈ 1.42 µM)	0.52 (≈ 0.641 µM)	1.6 (≈ 1.97 µM)
CC[C@]1(O)C[C@H]2CN(CCc3c([nH]c4ccccc34)[C@@](C(=O)OC)(c3cc4c(cc3OC)N(C=O)[C@H]3[C@@](O)(C(=O)OC)[C@H](OC(C)=O)[C@]5(CC)C=CCN6CC[C@]43[C@@H]65)C2)C1 [VINCRISTINE]	0.05 (≈ 0.0606 µM)	0.15 (≈ 0.182 µM)	1.42 (≈ 1.72 µM)	8.5 (≈ 10.3 µM)	0.02 (≈ 0.0242 µM)	0.25 (≈ 0.303 µM)	0.01 (≈ 0.0121 µM)	1 (≈ 1.21 µM)	0.46 (≈ 0.558 µM)	1.5 (≈ 1.82 µM)
